Experiment [1] addresses T1, human NPY Y5 receptor (Homo sapiens, UniProt Q15761).
T1 construct: expressed in transfected cells
T1 sequence (Q15761 1-445): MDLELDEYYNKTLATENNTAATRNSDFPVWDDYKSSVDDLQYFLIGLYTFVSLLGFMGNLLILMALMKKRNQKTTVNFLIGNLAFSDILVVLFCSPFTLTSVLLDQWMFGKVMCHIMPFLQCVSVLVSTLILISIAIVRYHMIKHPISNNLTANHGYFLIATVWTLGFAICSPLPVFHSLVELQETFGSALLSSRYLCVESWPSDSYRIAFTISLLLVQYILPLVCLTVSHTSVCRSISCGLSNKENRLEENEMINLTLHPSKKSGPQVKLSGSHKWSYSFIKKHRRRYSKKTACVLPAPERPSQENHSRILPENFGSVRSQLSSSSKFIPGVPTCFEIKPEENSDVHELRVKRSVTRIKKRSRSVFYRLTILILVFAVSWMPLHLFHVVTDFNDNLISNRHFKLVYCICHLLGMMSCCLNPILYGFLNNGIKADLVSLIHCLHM
Put plainly: cAMP production inhibitory activity in CHO cells. As to conditions: against 50 nM NPY inhibition of forskolin stimulated cAMP, CHO cells expressing human NPY Y5 receptor. The class given is cell-based. As for the experimental part:
Experiment 2 cAMP production inhibitory activity in CHO cells
After CHO cells expressing human NPY Y5 receptor were incubated in the presence of 2.5 mM isobutylmethylxanthine (SIGMA) at 37° C. for 20 min., the compound of the present invention was added and incubated for 5 min. Then, 50 nM NPY and 10 μM forskolin (SIGMA) were added to the cells and incubated for 30 min. After the reaction was terminated by adding 1N HCl, the amount of cAMP in the supernatant was measured with EIA kit (Amersham LIFE SCIENCE).
(cAMP levels reflect the balance of adenylyl cyclase and phosphodiesterase activity.)

Experiment [2] concerns the target T1, human NPY Y5 receptor. Description: Affinity for NPY Y5 receptor ([125I] peptide YY binding, CHO cell membranes). As to conditions: inhibition of specific [125I] peptide YY binding, membranes of CHO cells expressing NPY Y5 receptor. An excerpt: Experiment 1 Affinity for NPY Y5 Receptor
cDNA sequence encoding a human NPY Y5 receptor (WO096/16542) was cloned in the expression vector pME18S (Takebe et al. Mol. Cell. Biol. 8, 8957). The obtained expression vector was transfected into a host CHO cells by using a Lipofect AMINE reagent (Trademark, Gibco BRL Co., Ltd.) according to an instruction protocol to obtain the cells that stably express NPY Y5 receptor.
The membranes prepared from the above CHO cells expressing NPY Y5 receptor, the compound of the present invention and 30,000 cpm [^125I] peptide YY (60 pM of final concentration: Amersham) were incubated in the assay buffer (20 mM HEPES-Hanks buffer containing 0.1% bovine serum albumin, pH 7.4) at 25° C. for 2 hours, and then the mixture was filtered with a glassfilter GF/C treated with polyethyleneimine. After the glassfilter was washed with 50 mM Tris-HCl buffer (pH 7.4), the radioactivity on the filter was measured with a gamma counter. The non-specific binding was detected in the presence of 200 nM of peptide YY. The 50% inhibitory concentration of the test compound against the specific peptide YY binding (IC50 value) was calculated (Inui, A. et al. Endocrinology 131, 2090-2096 (1992)).

SMILES strings stand for the structures. pIC50: −log10 of the molar value.

Consider `CC(C)(C)S(=O)(=O)NC1CCC(C(=O)Nc2ccc(N3CCN(c4ccccc4)CC3)cc2)CC1` (stereo not shown) [Compound I-53], for which the pIC50 on human NPY Y5 receptor [1] was 7.68; at human NPY Y5 receptor [2], 8.39.

Consider `COc1ccc(NC(=O)C2CCC(NS(=O)(=O)C(C)(C)C)CC2)c(Sc2ccccc2)n1` (stereo not shown) [Compound I-141], for which the figures for the pIC50 at human NPY Y5 receptor [1] and at human NPY Y5 receptor [2] were 8.13 and 9.38, respectively.

On to `CC(C)(C)S(=O)(=O)NC1CCC(C(=O)Nc2ccc(C(=O)c3ccccc3)cc2)CC1` (stereo not shown) [Ia-53], for which the pIC50 against human NPY Y5 receptor [1] is 8.09; at human NPY Y5 receptor [2] it was 9.66.

In the case of `CC(C)(C)S(=O)(=O)NC1CCC(C(=O)Nc2ccc(Cl)cc2)CC1` (stereo not shown) [Ia-14], the pIC50 on human NPY Y5 receptor [1] was 7.55; at human NPY Y5 receptor [2] it was 8.32.

With `CCCCc1ccc(NC(=O)C2CCC(NS(=O)(=O)C(C)(C)C)CC2)cc1` (stereo not shown) [Compound I-22], the negative logarithm of the IC50 (pIC50) was 7.29 against human NPY Y5 receptor [1] and 8.07 on human NPY Y5 receptor [2].

Take `Cc1cc(C(=O)NC(C)C)ccc1NC(=O)N1CCC(NS(=O)(=O)C(C)(C)C)CC1` [Ia-243]: the pIC50 on human NPY Y5 receptor [2] was 8.89.

Regarding `CC(C)(C)S(=O)(=O)NC1CCN(C(=O)Nc2ccc(N3CCCS3(=O)=O)cc2)CC1` [Ia-256], on human NPY Y5 receptor [2], the pIC50 was 8.24.

The compound `CC(C)CN1C(=O)c2ccc(NC(=O)CCCCNS(=O)(=O)C(C)(C)C)cc2C1=O` [Ia-232] showed a pIC50 at human NPY Y5 receptor [2] of 9.15.

`Cc1cc(=O)oc2cc(NC(=O)CCCCNS(=O)(=O)C(C)C)ccc12` [Ia-229] had a pIC50 at human NPY Y5 receptor [2] of 8.72.

In turn, `CC(C)(C)S(=O)(=O)NC1CCC(C(=O)Nc2ccc3occc3c2)CC1` (stereo not shown) [Ia-250] had a pIC50 at human NPY Y5 receptor [2] of 8.72.

In the case of `CC(C)S(=O)(=O)NC1CCC(C(=O)Nc2ccc(OC(C)(C)C)cc2)CC1` (stereo not shown) [Ia-252], the pIC50 on human NPY Y5 receptor [2] was 8.92.

Regarding `CC(C)(C)S(=O)(=O)NCCCCC(=O)Nc1ccc(N2CCCS2(=O)=O)cc1` [Ia-255], at human NPY Y5 receptor [2], the pIC50 is 8.49.

At human NPY Y5 receptor [2], `CC(C)S(=O)(=O)N[C@H]1CC[C@H](C(=O)Nc2ccc3oc(=O)ccc3c2)CC1` [Ia-76] had a pIC50 of 8.66.

At human NPY Y5 receptor [2], `CC(C)(C)S(=O)(=O)NC1CCC(C(=O)Nc2ccc(-c3ccc(-c4ccccc4)cc3)cc2)CC1` (stereo not shown) [Compound I-136] showed a pIC50 of 8.55.

As to `CC(C)(C)S(=O)(=O)N[C@H]1CC[C@H](C(=O)Nc2ccc3c(c2)C(=O)N(c2ccccc2)C3=O)CC1` [Ia-79], the pIC50 on human NPY Y5 receptor [2] is 9.09.

On human NPY Y5 receptor [2], `Cc1cc(=O)oc2cc(NC(=O)CCCCNS(=O)(=O)C(C)(C)C)ccc12` [Ia-228] showed a pIC50 of 9.02.

`CC(C)(C)Oc1ccc(NC(=O)N2CCC(NS(=O)(=O)C(C)(C)C)CC2)cc1` [Ia-254] showed a pIC50 at human NPY Y5 receptor [2] of 8.70.

Take `CC(C)S(=O)(=O)NC1CCC(C(=O)Nc2ccc(-c3ncco3)cc2)CC1` (stereo not shown) [Ia-184]: on human NPY Y5 receptor [2], the pIC50 was 9.42.

`CC(C)(C)S(=O)(=O)NC1CCC(C(=O)Nc2cccc(-c3ccco3)c2)CC1` (stereo not shown) [Ia-209] had a pIC50 on human NPY Y5 receptor [2] of 9.26.

Turning to `CC(C)(C)S(=O)(=O)NC1CCC(C(=O)Nc2nc3ccccc3s2)CC1` (stereo not shown) [Ia-235], the pIC50 at human NPY Y5 receptor [2] was 8.26.

`COc1ccc(Cl)cc1NC(=O)C1CCC(NS(=O)(=O)C(C)(C)C)CC1` (stereo not shown) [Ia-35]: the pIC50 on human NPY Y5 receptor [2] was 8.74.

`CC(C)CN1C(=O)c2ccc(NC(=O)[C@H]3CC[C@H](NS(=O)(=O)C(C)C)CC3)cc2C1=O` [Ia-231] showed a pIC50 at human NPY Y5 receptor [2] of 9.54.

Consider `Cc1cc(=O)oc2cc(NC(=O)[C@H]3CC[C@H](NS(=O)(=O)C(C)C)CC3)ccc12` [Ia-227], for which, on human NPY Y5 receptor [2], the pIC50 is 9.23.

In turn, `CC(C)CN1C(=O)c2ccc(NC(=O)CCCCNS(=O)(=O)C(C)C)cc2C1=O` [Ia-233] gave a pIC50 at human NPY Y5 receptor [2] of 9.20.

Compound `CC(C)(C)Oc1ccc(NC(=O)CCCCNS(=O)(=O)C(C)(C)C)cc1` [Ia-253] had a pIC50 at human NPY Y5 receptor [2] of 9.28.

For the compound `CC(C)(C)S(=O)(=O)NCCCCC(=O)Nc1ccc(OC2CCOCC2)cc1` [Ia-257], the pIC50 on human NPY Y5 receptor [2] was 8.07.

For the compound `CC(C)S(=O)(=O)NC1CCC(C(=O)Nc2ccc(OC3CCOCC3)cc2)CC1` (stereo not shown) [Ia-258], at human NPY Y5 receptor [2], the pIC50 is 8.74.

In the case of `CC(C)(C)S(=O)(=O)NC1CCN(C(=O)Nc2ccc(C(F)(F)F)cn2)CC1` [Ia-241], the pIC50 at human NPY Y5 receptor [2] is 8.72.

In the case of `CC(C)CN1C(=O)c2ccc(NC(=O)[C@H]3CC[C@H](NS(=O)(=O)C(C)(C)C)CC3)cc2C1=O` [Ia-230], the pIC50 at human NPY Y5 receptor [2] was 9.49.

Broadly, the pIC50 is −log10 of the IC50, conventionally taken in molar units. A low value points to a high IC50.

(Values after patent publication US7265130B2, “NPY Y5 antagonist” (Shionogi & Co., Ltd., priority 1999, dated 2007).)
